Values joined by “and” are separate entries in the source; they are usually repeats but may differ in a detail not shown here. Equal entries are not always repeated. Where two headings read alike, the source gives them in different places.
T1: GACF327W (Mus musculus, UniProt D3Z7P3, F327W)
T1 sequence (D3Z7P3 73-603 isoform D3Z7P3-2 F327W): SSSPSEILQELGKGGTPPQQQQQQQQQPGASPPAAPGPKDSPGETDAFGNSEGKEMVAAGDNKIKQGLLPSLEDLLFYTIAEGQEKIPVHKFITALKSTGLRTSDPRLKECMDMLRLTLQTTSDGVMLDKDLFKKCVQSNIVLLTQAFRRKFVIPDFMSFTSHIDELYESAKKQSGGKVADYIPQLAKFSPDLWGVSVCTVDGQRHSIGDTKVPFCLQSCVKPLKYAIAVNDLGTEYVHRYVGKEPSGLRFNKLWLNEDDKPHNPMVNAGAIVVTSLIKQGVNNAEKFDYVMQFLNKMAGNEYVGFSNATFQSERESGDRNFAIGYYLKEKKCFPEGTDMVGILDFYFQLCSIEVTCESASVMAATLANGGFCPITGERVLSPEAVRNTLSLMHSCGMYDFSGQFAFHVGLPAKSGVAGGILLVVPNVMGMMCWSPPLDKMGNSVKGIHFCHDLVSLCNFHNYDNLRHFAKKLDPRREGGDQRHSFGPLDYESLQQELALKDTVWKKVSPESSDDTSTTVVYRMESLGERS

T2: GAC tetramers (Mus musculus, UniProt D3Z7P3)
T2 sequence (D3Z7P3 73-603 isoform D3Z7P3-2): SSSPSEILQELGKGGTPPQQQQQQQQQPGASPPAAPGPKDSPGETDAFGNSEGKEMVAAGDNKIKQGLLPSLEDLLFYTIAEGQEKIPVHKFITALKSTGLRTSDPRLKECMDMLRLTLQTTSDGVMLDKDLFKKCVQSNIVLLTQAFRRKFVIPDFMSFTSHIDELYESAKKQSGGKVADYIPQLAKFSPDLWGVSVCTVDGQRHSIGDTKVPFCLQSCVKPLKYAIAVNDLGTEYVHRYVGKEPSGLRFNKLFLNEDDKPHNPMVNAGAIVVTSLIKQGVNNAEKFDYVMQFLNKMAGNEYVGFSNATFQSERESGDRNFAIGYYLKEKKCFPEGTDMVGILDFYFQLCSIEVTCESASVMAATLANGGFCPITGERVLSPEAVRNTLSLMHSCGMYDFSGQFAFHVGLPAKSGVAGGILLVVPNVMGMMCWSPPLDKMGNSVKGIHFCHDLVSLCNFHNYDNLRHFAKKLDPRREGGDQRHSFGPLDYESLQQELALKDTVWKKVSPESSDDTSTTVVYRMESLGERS

T3: GAC (Mus musculus, UniProt D3Z7P3)
T3 sequence (D3Z7P3 73-603 isoform D3Z7P3-2): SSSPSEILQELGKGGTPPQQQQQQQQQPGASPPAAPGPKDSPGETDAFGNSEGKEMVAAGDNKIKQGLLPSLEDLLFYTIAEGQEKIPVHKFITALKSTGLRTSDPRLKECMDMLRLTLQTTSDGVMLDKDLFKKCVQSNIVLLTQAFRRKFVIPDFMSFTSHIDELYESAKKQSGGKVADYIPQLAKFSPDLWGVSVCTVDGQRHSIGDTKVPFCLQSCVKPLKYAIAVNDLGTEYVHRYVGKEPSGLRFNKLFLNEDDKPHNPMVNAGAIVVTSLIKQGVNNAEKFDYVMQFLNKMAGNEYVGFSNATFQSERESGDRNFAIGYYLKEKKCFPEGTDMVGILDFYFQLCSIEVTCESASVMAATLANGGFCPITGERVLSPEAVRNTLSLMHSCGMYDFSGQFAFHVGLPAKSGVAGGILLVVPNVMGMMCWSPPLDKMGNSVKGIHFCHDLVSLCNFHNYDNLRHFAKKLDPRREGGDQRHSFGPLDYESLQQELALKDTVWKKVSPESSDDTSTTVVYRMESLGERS

T4: WT GAC (Mus musculus, UniProt D3Z7P3)
T4 sequence (D3Z7P3 73-603 isoform D3Z7P3-2): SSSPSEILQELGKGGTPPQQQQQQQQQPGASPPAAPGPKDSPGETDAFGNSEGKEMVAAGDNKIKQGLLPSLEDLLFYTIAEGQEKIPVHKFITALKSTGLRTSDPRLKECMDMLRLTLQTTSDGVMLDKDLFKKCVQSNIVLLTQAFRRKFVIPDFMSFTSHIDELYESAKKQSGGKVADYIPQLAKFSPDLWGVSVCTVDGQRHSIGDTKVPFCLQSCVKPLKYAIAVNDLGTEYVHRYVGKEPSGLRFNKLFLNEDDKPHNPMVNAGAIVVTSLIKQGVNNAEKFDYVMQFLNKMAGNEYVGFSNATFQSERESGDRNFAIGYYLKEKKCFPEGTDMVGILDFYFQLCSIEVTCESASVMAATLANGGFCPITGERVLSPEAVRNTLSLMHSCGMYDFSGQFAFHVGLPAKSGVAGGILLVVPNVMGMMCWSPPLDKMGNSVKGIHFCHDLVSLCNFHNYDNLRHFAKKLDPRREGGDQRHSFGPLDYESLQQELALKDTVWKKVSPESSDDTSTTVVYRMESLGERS


Assays:
[1] = biological target: T1, GACF327W; conditions: for enhancement of the tryptophan fluorescence of the F327W mutant: addition of anionic activator, 50 mM anion, 400 nM F327W in FIG. 10A
[2] = biological target: T2, GAC tetramers; conditions: for FRET signal (GAC tetramer formation): 25 nM 488-labeled GAC, 75 nM QSY9-GAC; for reversibility of bound GAC tetramers: after addition of excess unlabeled GAC subunits
[3] = biological target: T3, GAC; experiment: Real-time NADH fluorescence assay of GAC activity; format: biochemical; design: residues 73-603) was cloned into a pET28a vector; His tag with thrombin cleavage site (N); made in house; conditions: 1 μM inhibitor, 10 nM GAC, 20 mM glutamine, 100 mM HPO4^2−
Excerpt: FIG. 4A is a spectra of real-time NADH assays of GAC activity, in which the increased NADH fluorescence (in arbitrary units (AU)) results from the coupled reaction where GAC catalyzes glutamate production, and GDH converts glutamate to α-ketoglutarate and NAD to NADH. […] FIG. 4B is a graph of relative glutaminase activity. […] Error bars represent the standard deviation of three independent experiments.

[4] = biological target: T1, GACF327W; experiment: biochemical; conditions: KD from fluorescence quenching of the GACF327W mutant, 100 nM GACF327W; fit to a bimolecular interaction equation
[5] = biological target: T3, GAC; experiment: biochemical
[6] = biological target: T3, GAC; conditions: for Kd: read-out: KD values from glutaminase activity with increasing concentrations of anion, 50 nM WT GAC, allosteric activation
[7] = biological target: T4, WT GAC; conditions: 5 mg/ml WT GAC; 50 mM anion in the running buffer
[8] = Catalytic properties of GAC proteins (phosphate-stimulated glutaminase activity); format: biochemical, mouse

reversibility of bound GAC tetramers [2] | Molecule | enhancement of the tryptophan fluorescence of the F327W mutant [1] | Kd [6] | FRET signal (GAC tetramer formation) ([2]; 100 mM anion) | Km [8] | Vmax [8] | further results
resistant to dissociation | O=C(Cc1cccc(OC(F)(F)F)c1)Nc1ccc(CCCCc2nnc(NC(=O)Cc3ccccn3)s2)nn1 [CB-839] |  |  |  |  |  | change in tryptophan fluorescence of GACF327W upon addition of inhibitor ([1]; 1 μM BPTES in FIG. 6B, increasing concentrations in FIGS. 8A-B): dose-dependent quenching; binding kinetics (comparison) ([1]; real-time F327W fluorescence): slower binding kinetics than BPTES; FRET signal (GAC tetramer formation) ([2]; 500 nM inhibitor): rapidly increases the FRET signal; inhibition of phosphate-stimulated GAC activity (initial rate analysis) [3]: stronger inhibition; Kd [4]: 0.034 µM and 0.03 µM; IC50 [5]: 0.023 ± 0.001 µM
readily reversible | O=P(O)(O)O [inorganic phosphate] | 25% | 20600 ± 400 µM | rapidly increases the FRET signal |  |  | oligomer size from molecular weight distribution [7]: greater than 32 mers
 | GACF327W: mutant mouse GLS protein (GAC) with phenylalanine to tryptophan substitution at position 327 (protein, Mouse GAC with F327W substitution) MMRLRGSAMLRELLLRPPAAVGAVLRRAQPLGTLCRRPRGGSRPTAGLVAAARLHPWWGGGGRAKGPGAGGLSSSPSEILQELGKGGTPPQQQQQQQQQPGASPPAAPGPKDSPGETDAFGNSEGKEMVAAGDNKIKQGLLPSLEDLLFYTIAEGQEKIPVHKFITALKSTGLRTSDPRLKECMDMLRLTLQTTSDGVMLDKDLFKKCVQSNIVLLTQAFRRKFVIPDFMSFTSHIDELYESAKKQSGGKVADYIPQLAKFSPDLWGVSVCTVDGQRHSIGDTKVPFCLQSCVKPLKYAIAVNDLGTEYVHRYVGKEPSGLRFNKLWLNEDDKPHNPMVNAGAIVVTSLIKQGVNNAEKFDYVMQFLNKMAGNEYVGFSNATFQSERESGDRNFAIGYYLKEKKCFPEGTDMVGILDFYFQLCSIEVTCESASVMAATLANGGFCPITGERVLSPEAVRNTLSLMHSCGMYDFSGQFAFHVGLPAKSGVAGGILLVVPNVMGMMCWSPPLDKMGNSVKGIHFCHDLVSLCNFHNYDNLRHFAKKLDPRREGGDQRHSFGPLDYESLQQELALKDTVWKKVSPESSDDTSTTVVYRMESLGERS |  |  |  | 15 ± 1.7 mM | 435 ± 19 µmol/min | 
 | WT GAC: recombinant wild-type mouse glutaminase C, NP_001106854.1, residues 73-603 (protein, left off: small tags and cut ends) SSSPSEILQELGKGGTPPQQQQQQQQQPGASPPAAPGPKDSPGETDAFGNSEGKEMVAAGDNKIKQGLLPSLEDLLFYTIAEGQEKIPVHKFITALKSTGLRTSDPRLKECMDMLRLTLQTTSDGVMLDKDLFKKCVQSNIVLLTQAFRRKFVIPDFMSFTSHIDELYESAKKQSGGKVADYIPQLAKFSPDLWGVSVCTVDGQRHSIGDTKVPFCLQSCVKPLKYAIAVNDLGTEYVHRYVGKEPSGLRFNKLFLNEDDKPHNPMVNAGAIVVTSLIKQGVNNAEKFDYVMQFLNKMAGNEYVGFSNATFQSERESGDRNFAIGYYLKEKKCFPEGTDMVGILDFYFQLCSIEVTCESASVMAATLANGGFCPITGERVLSPEAVRNTLSLMHSCGMYDFSGQFAFHVGLPAKSGVAGGILLVVPNVMGMMCWSPPLDKMGNSVKGIHFCHDLVSLCNFHNYDNLRHFAKKLDPRREGGDQRHSFGPLDYESLQQELALKDTVWKKVSPESSDDTSTTVVYRMESLGERS |  |  |  | 16.4 ± 0.4 mM | 453 ± 8 µmol/min | 

Molecule | reversibility of bound GAC tetramers [2] | enhancement of the tryptophan fluorescence of the F327W mutant [1] | Kd [6] | FRET signal (GAC tetramer formation) ([2]; 100 mM anion) | Km [8] | Vmax [8] | further results
O=S(=O)(O)O [sulfate] | readily reversible | 15% | 36400 ± 3000 µM | rapidly increases the FRET signal |  |  | effectiveness in activating GAC relative to phosphate ([6]; relative to phosphate (HPO4^2−)): −50%
